Series [1] has as its system Rattus norvegicus. The series is described as follows: Tmax in Sprague Dawley rat assessed as 6-Phenyl-5-[4-(qumolm-2-ylmethoxy)phenyl]pyridm-2(1H)-one at 11.04 mg/kg, po measured up to 8 hrs. The format is ADME, organism-based. The settings on record: in vivo.
Series [2] relates to Rattus norvegicus. The series is described as follows: Cmax in Sprague Dawley rat assessed as 6-Phenyl-5-[4-(qumolm-2-ylmethoxy)phenyl]pyridm-2(1H)-one at 11.04 mg/kg, po measured up to 8 hrs. It counts as ADME, organism-based. On the set-up: dose 11.04 mg/kg, route oral. The settings on record: in vivo.
The test system of series [3] is Rattus norvegicus. The series is described as follows: AUC (0 to t) in Sprague Dawley rat assessed as 6-Phenyl-5-[4-(qumolm-2-ylmethoxy)phenyl]pyridm-2(1H)-one at 11.04 mg/kg, po measured up to 8 hrs. The format is ADME, organism-based. Set-up: time < 8 hr, dose 11.04 mg/kg, route oral. The settings on record: in vivo.
Series [4] relates to Canis familiaris. Kind of series: AUC (0 to 24 hrs) in Beagle dog assessed as 6-(4-Fluorophenyl)-5-[4-quinolin-2-ylmethoxy)phenyl]-pyridine-2(1H)-one at […], iv. Conditions: in vivo. On the set-up: time < 24 hr, dose 1.1 mg/kg, route intravenous. The format is ADME, organism-based, Canis lupus familiaris.
Series [5] relates to Canis familiaris. The series is described as follows: AUC (0 to 24 hrs) in Beagle dog assessed as 6-(4-Fluorophenyl)-5-[4-quinolin-2-ylmethoxy)phenyl]-pyridine-2(1H)-one at 11.04 mg/kg, po. The settings on record: in vivo. It counts as ADME, organism-based, Canis lupus familiaris. On the set-up: dose 11.04 mg/kg, time < 24 hr, route oral.
Series [6] relates to Cynomolgus monkey. The series is described as follows: AUC (0 to 24 hrs) in cynomolgus monkey assessed as 6-(4-Fluorophenyl)-5-[4-quinolin-2-ylmethoxy)phenyl]-pyridine-2(1H)-one at […], iv. The settings on record: in vivo. It counts as ADME, organism-based, Macaca fascicularis. On the set-up: time < 24 hr, dose 1.1 mg/kg, route intravenous.
The test system of series [7] is Cynomolgus monkey. The series is described as follows: AUC (0 to 24 hrs) in cynomolgus monkey assessed as 6-(4-Fluorophenyl)-5-[4-quinolin-2-ylmethoxy)phenyl]-pyridine-2(1H)-one at 11.04 mg/kg, po. It counts as ADME, organism-based, Macaca fascicularis. Set-up: time < 24 hr, dose 11.04 mg/kg, route oral. Conditions: in vivo.
For series [8], the system named is Rattus norvegicus. The series is described as follows: AUC (0 to t) in Sprague Dawley rat assessed as 6-(4-Fluorophenyl)-5-[4-quinolin-2-ylmethoxy)phenyl]-pyridine-2(1H)-one at 11.04 mg/kg, po measured after 8hrs. It counts as ADME, organism-based. Conditions: in vivo.
Series [9] concerns Rattus norvegicus. The series is described as follows: AUC (0 to 24 hrs) in Sprague Dawley rat assessed as 6-(4-Fluorophenyl)-5-[4-quinolin-2-ylmethoxy)phenyl]-pyridine-2(1H)-one at […], iv. The format is ADME, organism-based. On the set-up: dose 1.1 mg/kg, time < 24 hr, route intravenous. The settings on record: in vivo.
For series [10], the system named is Cynomolgus monkey. Kind of series: Cmax in cynomolgus monkey assessed as 6-(4-Fluorophenyl)-5-[4-quinolin-2-ylmethoxy)phenyl]-pyridine-2(1H)-one at 11.04 mg/kg, po. It counts as ADME, organism-based, Macaca fascicularis. On the set-up: dose 11.04 mg/kg, route oral. The settings on record: in vivo.
Series [11] concerns Rattus norvegicus. Kind of series: Tmax in Sprague Dawley rat assessed as 6-(4-Fluorophenyl)-5-[4-quinolin-2-ylmethoxy)phenyl]-pyridine-2(1H)-one at 11.04 mg/kg, po measured after 8hrs. It counts as ADME, organism-based. The settings on record: in vivo.
Series [12] has as its system Cynomolgus monkey. The series is described as follows: Tmax in cynomolgus monkey assessed as 6-(4-Fluorophenyl)-5-[4-quinolin-2-ylmethoxy)phenyl]-pyridine-2(1H)-one at 11.04 mg/kg, po. It counts as ADME, organism-based, Macaca fascicularis. Conditions: in vivo.
Series [13] has as its system Canis familiaris. The series is described as follows: Tmax in Beagle dog assessed as 6-(4-Fluorophenyl)-5-[4-quinolin-2-ylmethoxy)phenyl]-pyridine-2(1H)-one at 11.04 mg/kg, po. It counts as ADME, organism-based, Canis lupus familiaris. The settings on record: in vivo.
Series [14] has as its system Canis familiaris. Kind of series: Cmax in Beagle dog assessed as 6-(4-Fluorophenyl)-5-[4-quinolin-2-ylmethoxy)phenyl]-pyridine-2(1H)-one at 11.04 mg/kg, po. Conditions: in vivo. On the set-up: dose 11.04 mg/kg, route oral. The format is ADME, organism-based, Canis lupus familiaris.
For series [15], the system named is Rattus norvegicus. Kind of series: Cmax in Sprague Dawley rat assessed as 6-(4-Fluorophenyl)-5-[4-quinolin-2-ylmethoxy)phenyl]-pyridine-2(1H)-one at 11.04 mg/kg, po measured up to 8 hrs. The format is ADME, organism-based. On the set-up: dose 11.04 mg/kg, route oral. The settings on record: in vivo.
Series [16] relates to Rattus norvegicus. The series is described as follows: AUC (0 to t) in Sprague Dawley rat assessed as 6-(2,4-Difluorophenyl)-5-[4-(quinolin-2-ylmethoxy)phenyl]-pyridin-2(1H)-one at 11.04 mg/kg, po measured up to 8 hrs. It counts as ADME, organism-based. Set-up: dose 11.04 mg/kg, time < 8 hr, route oral. Conditions: in vivo.
Series [17] relates to Rattus norvegicus. The series is described as follows: Cmax in Sprague Dawley rat assessed as 6-(2,4-Difluorophenyl)-5-[4-(quinolin-2-ylmethoxy)phenyl]-pyridin-2(1H)-one at 11.04 mg/kg, po measured up to 8 hrs. It counts as ADME, organism-based. On the set-up: dose 11.04 mg/kg, route oral. Conditions: in vivo.
Series [18] concerns Rattus norvegicus. Kind of series: Tmax in Sprague Dawley rat assessed as 6-(2,4-Difluorophenyl)-5-[4-(quinolin-2-ylmethoxy)phenyl]-pyridin-2(1H)-one at 11.04 mg/kg, po measured up to 8 hrs. The format is ADME, organism-based. Conditions: in vivo.
Series [19] can be described thus: Drug level in liver microsomes (unknown origin) treated with 6-(4-Fluorophenyl)-5-[4-quinolin-2-ylmethoxy)phenyl]-pyridine-2(1H)-one incubated for 60 mins measured by LC-MS/MS analysis in presence of UDPGA. It counts as ADME.
The nature of series [20]: Drug level in intestinal microsomes (unknown origin) treated with 6-(4-Fluorophenyl)-5-[4-quinolin-2-ylmethoxy)phenyl]-pyridine-2(1H)-one incubated for 60 mins measured by LC-MS/MS analysis in presence of UDPGA. It counts as ADME, Intestine.

As usually defined, the Tmax is the time at which the peak concentration occurs. One may read the Cmax as the maximum level reached in the sampled fluid or tissue. In general, AUC refers to the area under the concentration-time curve, a measure of exposure.

As to `CC(=O)Oc1ccc(-c2ccc(OCc3ccc4ccccc4n3)cc2)c(-c2ccccc2)n1`, the Tmax in series [1] is 1 h. In series [2], the Cmax stood at 372 ng/mL. In addition, in series [3], the AUCt stood at 1497 ng·h/mL.
Consider `CC(=O)Oc1ccc(-c2ccc(OCc3ccc4ccccc4n3)cc2)c(-c2ccc(F)cc2)n1`, for which the AUC in series [4] stood at 841 ng·h/mL; in series [5], 555 ng·h/mL; in series [6] it was 1314 ng·h/mL; in series [7], 345 ng·h/mL; in series [9], 492 ng·h/mL. In addition, in series [8], the AUCt turned out to be 2436 ng·h/mL. Further, the figures for the Cmax in series [10], in series [14] and in series [15] were 38 ng/mL, 49 ng/mL and 372 ng/mL, respectively. Further, the Tmax in [11] came out at 1 h; in series [12] it was 6 h; in [13] it was 1 h.
As to `CC(=O)Oc1ccc(-c2ccc(OCc3ccc4ccccc4n3)cc2)c(-c2ccc(F)cc2F)n1`, in [16], the AUCt worked out at 1764 ng·h/mL. The Cmax in series [17] was 266 ng/mL. The Tmax in series [18] came out at 2 h.
`CN(C)C(=O)Oc1ccc(-c2ccc(OCc3ccc4ccccc4n3)cc2)c(-c2ccc(F)cc2)n1`: the AUCt in [8] was 182 ng·h/mL. Besides, the Tmax in series [11] is 1 h. Moreover, the Cmax in series [15] worked out at 42 ng/mL.
As for `O=C(O)[C@H]1O[C@@H](Oc2ccc(-c3ccc(OCc4ccc5ccccc5n4)cc3)c(-c3ccc(F)cc3)n2)[C@H](O)[C@@H](O)[C@@H]1O`, the Drug metabolism entry in series [19] and in series [20] was “metabolite_detected” each time.

(Values after ChEMBL document CHEMBL3632475, “Design, Synthesis, and Pharmacological Evaluation of 5,6-Disubstituted Pyridin-2(1H)-one Derivatives as Phosphodiesterase 10A (PDE10A) Antagonists” (J Med Chem, 2015).)
